Test results reported in US20220146526A1, “METHOD FOR EVALUATING SAMPLE, ANALYSIS METHOD, METHOD FOR DETECTING DEGRADED SAMPLE, MARKER FOR DETECTING DEGRADED BLOOD PLASMA SAMPLE, AND MARKER FOR DETECTING DEGRADED SERUM SAMPLE” (SHIMADZU CORPORATION, priority 2019, published 2022).

Assays:
Assay type in all cases: physicochemical, human
[1] = LC/MS of serum sample: number of times of freezing and thawing (Table M); parameters: key to Rate of increase or decrease: detection intensity relative to 1 at 2 freeze-thaw cycles
Protocol: After standing, the blood sample was subjected to centrifugation under a condition of room temperature, 3500 rpm, and 5 minutes. […] After centrifugation, the blood-collecting vessel was left to stand at room temperature, and the serum was isolated during this time. Here, in order to investigate how the detection intensity of molecules contained in the sample was affected in cases where the time during which the blood-collecting vessel was left at room temperature was set to 1 hour and 6 hours as compared to that in a case where the time was set to 30 minutes, preparations were performed under the respective conditions of 30 minutes, 1 hour, and 6 hours. The obtained serum sample was frozen and stored. Here, in order to investigate how the detection intensity of molecules contained in the sample was affected in cases where freezing and thawing was performed 4 times, 6 times, and 10 times after freezing as compared to that in a case where freezing and thawing was performed 2 times after freezing, freezing and thawing was performed under the respective conditions of 2, 4, 6, and 10 times.
(§1) Frozen blood plasma samples and serum samples were subjected to GC/MS or LC/MS. In GC/MS, the blood plasma samples and serum samples were subjected to methoxymation and trimethylsilylation and then introduced to GC-MS.
(§2) Analysis column: Discovery HS F5-3 (inner diameter of 2.1 mm, length of 150 mm, film thickness of 3 μm) (Sigma-Aldrich)
(§3) Column temperature: 40° C.
(§4) (A) 0.1% formic acid (dissolved in water)
(§5) (B) 0.1% formic acid (dissolved in acetonitrile)
(§6) Flow velocity: 0.25 mL/min
(§7) Ionization method: electrospray
(§8) Temperature: • Desolvation Line (DL) temperature: 250° C. • Heat block temperature: 400° C. • Interface temperature: 300° C.
(§9) Gas flow rate: • Nebulizer gas flow rate: 3.0 L/min • Drying gas flow rate: 10.0 L/min • Heating gas flow rate: 10.0 L/min
(§10) Mode: multiple reaction monitoring (MRM)
The rate of increase or decrease in Table M is the value of detection intensity relative to 1 that is the detection intensity in a case where the number of times of freezing and thawing is set to 2 times.

[2] = LC/MS of blood plasma sample: number of times of freezing and thawing (Table F); conditions: for Rate of increase or decrease: detection intensity relative to 1 at 2 times; for Increase or decrease: detection intensity
Protocol: (§11) At room temperature, 5 mL of blood from a healthy subject was taken into a blood-collecting vessel containing EDTA, and the blood-collecting vessel was inverted for mixing, then cooled, and allowed to stand at 4° C. Here, in order to investigate how the detection intensity of molecules contained in the sample was affected in a case where the time to cooling was set to 5 minutes or more as compared to that in a case where the time to cooling was set to 1 minute or less, preparations were performed under both the former condition and the latter condition. After standing, the blood sample was subjected to centrifugation under a condition of 4° C., 3000 rpm, and 15 minutes. […] After centrifugation, the blood-collecting vessel was left to stand at room temperature for 30 minutes, and the blood plasma was isolated during this 30 minutes. The obtained blood plasma sample was frozen and stored. Here, in order to investigate how the detection intensity of molecules contained in the sample was affected in cases where freezing and thawing was performed 4 times, 6 times, and 10 times after freezing as compared to that in a case where freezing and thawing was performed 2 times after freezing, freezing and thawing was performed under the respective conditions of 2, 4, 6, and 10 times.
as §1, §2, §3, §4, §5, §6, §7, §8, §9, §10
The rate of increase or decrease in Table F is the value of detection intensity relative to 1 that is the detection intensity in a case where the number of times of freezing and thawing is set to 2 times.

[3] = GC/MS of blood plasma sample: number of times of freezing and thawing (Table C); conditions: for Rate of increase or decrease: detection intensity relative to 1 at 2 times; for Increase or decrease: detection intensity
Protocol: as §11, §1
(§12) GC/MS was conducted using GCMS·TQ8040 (Shimadzu Corporation) that was a GC·MS equipped with AOC·20i (Shimadzu Corporation) as an autosampler.
(§13) Column: BPX5 (inner diameter of 0.25 mm, length of 30 m, and film thickness of 0.25 μm) (SGE)
(§14) Column temperature: maintained at 60° C. for 2 minutes, then raised at 15° C./min, and maintained at 330° C. for 3 minutes.
(§15) Inlet temperature: 250° C.
(§16) Carrier gas control mode: constant linear velocity of 39.0 cm/sec
(§17) Sample introduction method: split (split ratio of 30:1) Injection volume: 1 μL
(§18) Ionization method: electron ionization
(§19) Ionization current: 60 μA
(§20) Interface temperature: 280° C.
(§21) Ion source temperature: 200° C.
as §10
The rate of increase or decrease in Table C is the value of detection intensity relative to 1 that is the detection intensity in a case where the number of times of freezing and thawing is set to 2 times.

[4] = GC/MS of serum sample: time from blood collection to centrifugation (Table G); conditions: blood collection to centrifugation; for Rate of increase or decrease: detection intensity relative to 1 at 15 minutes; for Increase or decrease: detection intensity
In short: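 Values express detection intensity as a ratio to the sample centrifuged 15 minutes after blood collection (taken as 1). Serum was derivatized by methoxymation and trimethylsilylation, then analysed by electron-ionization GC/MS using multiple reaction monitoring on a BPX5 column ramped from 60 to 330° C.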

[5] = GC/MS of blood plasma sample: time from blood collection to centrifugation (Table A); conditions: blood collection to centrifugation; for Rate of increase or decrease: detection intensity relative to 1 at 15 minutes; for Increase or decrease: detection intensity
Protocol: as §11, §1, §12, §13, §14, §15, §16, §17, §18, §19, §20, §21, §10
The rate of increase or decrease in Table A is the value of detection intensity relative to 1 that is the detection intensity in a case where the time from blood collection to centrifugation is set to 15 minutes.

[6] = GC/MS of serum sample: number of times of freezing and thawing (Table I); parameters: key to Rate of increase or decrease / Rate of increase or decrease (first value, increase): detection intensity relative to 2 freeze-thaw cycles = 1
In short: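 Detection intensities are ratios to the value after two freeze–thaw cycles, which is set as 1, compared against 4, 6 and 10 cycles. Analysis used methoxymation and trimethylsilylation derivatization, then GC/MS with EI ionization and multiple reaction monitoring on a BPX5 column. Serum came from blood held at room temperature and spun at 3500 rpm for 5 min.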

[7] = GC/MS of serum sample: time from centrifugation to isolation (Table H); parameters: key to Rate of increase or decrease / Rate of increase or decrease (first value, increase): detection intensity relative to 1 at 30 min centrifugation-to-isolation
In short: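 Values are GC/MS (EI, MRM) detection intensities of methoxymated/trimethylsilylated serum, normalised to 1 for the 30-min sample. Serum was isolated 30 min, 1 h or 6 h after room-temperature centrifugation (3500 rpm, 5 min) of blood.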

[8] = LC/MS of blood plasma sample: time from blood collection to centrifugation (Table D); conditions: blood collection to centrifugation
Protocol: as §11, §1, §2, §3, §4, §5, §6, §7, §8, §9, §10
The rate of increase or decrease in Table D is the value of detection intensity relative to 1 that is the detection intensity in a case where the time from blood collection to centrifugation is set to 15 minutes.

[9] = freezing and thawing 10 times vs 2 times
[10] = freezing and thawing 4 times vs 2 times

With `N[C@@H](CCS)C(=O)O` [Homocysteine] the “Rate of increase or decrease” value ([1]; 6 times of freezing and thawing, detection intensity relative to 1 at 2 times) was 1.30, the “Number of times when compound is affected” value ([1]; serum sample, LC/MS, detection intensity changed by 30% or more vs 2 times of freezing and thawing) was 6 times and the Increase or decrease ([1]; serum sample, LC/MS, detection intensity vs 2 times of freezing and thawing) was “Decrease”. For the same molecule, the “Rate of increase or decrease” value ([2]; freezing and thawing 10 times) was 1.37 and the Increase or decrease [2, 9] was “Increase”.
For `O=C(O)[C@H](O)[C@H](O)[C@H](O)CO` [Ribonic acid], the “Rate of increase or decrease” value ([3]; freezing and thawing 4 times) was 1.62, the Increase or decrease [3, 10] was “Increase” and the “Rate of increase or decrease” value ([4]; after 12 hours) was 1.46. The Increase or decrease ([4]; after 12 hours vs 15 minutes) was “Increase”, the “Rate of increase or decrease” value ([5]; after 4 hours) was 0.17 and the Increase or decrease ([5]; after 4 hours vs 15 minutes) was “Decrease”.
With `CCCCCCCCCCCCCCCCCC(=O)OCC(O)CO` (stereo not shown) [Monostearin] the “Rate of increase or decrease” value ([3]; freezing and thawing 6 times) was 0.67, the Increase or decrease ([3]; freezing and thawing 6 times vs 2 times) was “Decrease” and the “Rate of increase or decrease” value ([4]; after 4 hours) was 1.98. The Increase or decrease ([4]; after 4 hours vs 15 minutes) was “Increase”, the “Rate of increase or decrease” value ([6]; 10 times of freezing and thawing, detection intensity relative to 1 at 2 times) was 0.60 and the “Number of times when compound is affected” value ([6]; serum sample, GC/MS, detection intensity changed by 30% or more vs 2 times of freezing and thawing) was 10 times. The Increase or decrease ([6]; serum sample, GC/MS, detection intensity vs 2 times of freezing and thawing) was “Decrease”, the “Rate of increase or decrease” value ([7]; detection intensity relative to 1 at 30 minutes, after 6 hours) was 2.08 and the Increase or decrease ([7]; detection intensity, after 6 hours vs 30 minutes) was “Increase”. The “Rate of increase or decrease” value ([5]; after 12 hours) was 1.35 and the Increase or decrease ([5]; after 12 hours vs 15 minutes) was “Increase”.
With `NC(=O)CC[C@H](N)C(=O)O` [Glutamine] the “Rate of increase or decrease” value ([2]; freezing and thawing 10 times) was 1.34 and the Increase or decrease [2, 9] was “Increase”.
With `N[C@@H](CCSC[C@H](N)C(=O)O)C(=O)O` [Cystathionine] the “Rate of increase or decrease” value ([8]; detection intensity relative to 1 at 15 minutes, after 12 hours) was 1.44, the Increase or decrease ([8]; detection intensity, after 12 hours vs 15 minutes) was “Increase” and the “Rate of increase or decrease” value ([2]; freezing and thawing 4 times) was 1.52. The Increase or decrease [2, 10] was “Increase”.
